“Also recorded” adds a separate entry of the source.
Legend:
GPX4 = biological target: T1, GPX4 (Homo sapiens, UniProt P36969); test: GPX4-specific enzymatic activity assay (LC-MS substrate/product, NADPH-coupled); type: biochemical
T1 sequence (P36969 1-170 isoform P36969-2): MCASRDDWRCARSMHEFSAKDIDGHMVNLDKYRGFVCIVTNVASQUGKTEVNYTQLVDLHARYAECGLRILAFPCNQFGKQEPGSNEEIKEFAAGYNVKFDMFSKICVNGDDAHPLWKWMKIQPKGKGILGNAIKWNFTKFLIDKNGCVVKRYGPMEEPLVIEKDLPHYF
Description: These x-ray structures enabled further optimization of current inhibitors and the design of novel inhibitors targeting various binding sites on GPX4. Therefore, we applied a strategy of computer-facilitated design, based on MD simulation (Desmond) and Glide docking (Schrödinger Suite), and experimental high-throughput screening of a lead-optimized compound library of 10,000 compounds (FIGS. 6A-6E). All candidates were first evaluated by thermal denaturation assay and microscale thermophoresis (MST) to validate binding to GPX4 (Table 1). Surface plasmon resonance (SPR) and isothermal titration calorimetry (ITC) were then applied to precisely measure their binding kinetics and affinities, while ^1H-^15N heteronuclear single-quantum coherence (HSQC) NMR spectroscopy informed us of binding sites. We optimized two GPX4-specific activity assays to examine enzymatic inhibitory effects of hit compounds—LC-MS-based substrate/product monitoring and an NADPH-coupled assay. […] Some L880 analogues were also synthesized and tested (Table 2).

[1] = biological target: T2, cellular GPX4 in HT1080 cell lysate (Homo sapiens, UniProt P36969); test: NADPH-coupled cellular GPX4-specific activity, HT1080 cell lysate; type: biochemical; settings: 500 μM LOC1886 added to lysate
T2 construct: endogenous in cells; host or cells: HT-1080 (ATCC), whole-cell lysate
T2 sequence (P36969 1-197): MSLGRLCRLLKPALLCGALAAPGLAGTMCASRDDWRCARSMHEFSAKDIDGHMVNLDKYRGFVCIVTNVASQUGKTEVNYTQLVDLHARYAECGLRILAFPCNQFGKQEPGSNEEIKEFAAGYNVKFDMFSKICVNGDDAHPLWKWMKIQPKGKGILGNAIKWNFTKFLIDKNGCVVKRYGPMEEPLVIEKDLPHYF
Method: We applied a NADPH-coupled cellular GPX4 enzymatic activity assay as previously reported with minor modifications (Roveri et al. 1994). Oxidized glutathione, generated by GPX4 during reducing its specific phospholipid hydroperoxides substrate, was reduced by Glutathione Reductase at the expense of NADPH, the decrease in the characteristic absorbance of which at 340 nm was monitored and quantified as GPX4 activity. […] The concentration of protein in the lysate was determined using BCA assay kit using BSA as standards. […] Absorbance of NADPH at 340 nm was determined kinetically at 1 min interval over the 20 min time. […] Results were quantified using GraphPad Prism 9.
We applied a NADPH-coupled cellular GPX4 enzymatic activity assay as previously reported (Roveri et al. 1994). Oxidized glutathione, generated by GPX4 during reducing its specific phospholipid hydroperoxides substrate, was reduced by Glutathione Reductase at the expense of NADPH, the decrease in the characteristic absorbance of which at 340 nm was monitored and quantified as GPX4 activity. […] The concentration of protein in the lysate was determined using BCA assay kit using BSA as standards. […]

Aqueous solubility = type: physicochemical
cancer cells = settings: cited from earlier work

| Compound | GPX4 enzymatic assay (GPX4) | capability of cellular GPX4 to reduce phospholipid hydroperoxides [1] | solubility in aqueous solution (Aqueous solubility) | potency to induce ferroptosis (cancer cells) |
| --- | --- | --- | --- | --- |
| COc1cccc2[nH]c(C(=O)n3ccnc3)cc12 [LOC1886] | suppression of its enzymatic activity; also recorded: positive | inhibited the capability of cellular GPX4 |  |  |
| COC(=O)c1ccc([C@@H]2c3[nH]c4ccccc4c3C[C@@H](C(=O)OC)N2C(=O)CCl)cc1 [RSL3, (1S, 3R)-RSL3] |  |  | low | nanomolar potencies |
